Results from patent publication US10208015B2, “Aryl-triazolyl pyridines as pest control agents” (BAYER ANIMAL HEALTH GMBH, priority 2014, dated 2019).
Where two headings read alike, the source gives them in different places.

What was measured:
[1] = logP by HPLC on reversed-phase column (C18), EEC Directive 79/831 Annex V.A8; type: physicochemical
Ctenocephalides felis [2] = experiment: Ctenocephalides felis in vitro contact test with adult cat fleas; type: in vivo; conditions: application rate 500 g/ha (5 μg/cm^2), after 48 h
Protocol: Ctenocephalides felis—In Vitro Contact Tests with Adult Cat Fleas
(§1) For the coating of the test tubes, 9 mg of active compound are first dissolved in 1 ml of acetone p.a. and then diluted to the desired concentration with acetone p.a. 250 μl of the solution are distributed homogeneously on the inner walls and the base of a 25 ml test tube by turning and rocking on an orbital shaker (rocking rotation at 30 rpm for 2 h). With 900 ppm active compound solution and internal surface 44.7 cm^2, given homogeneous distribution, an area-based dose of 5 μg/cm^2 is achieved.
After the solvent has evaporated off, the tubes are populated with 5-10 adult cat fleas (Ctenocephalides felis), sealed with a perforated plastic lid and incubated in a horizontal position at room temperature and ambient humidity. After 48 h, efficacy is determined. To this end, the test tubes are stood upright and the fleas are knocked to the base of the tube. Fleas which remain motionless at the base or move in an uncoordinated manner are considered to be dead or moribund.
100% efficacy means that all the fleas were dead or moribund. 0% efficacy means that no fleas were harmed.

Rhipicephalus sanguineus = Rhipicephalus sanguineus in vitro contact test with adult brown dog ticks; type: in vivo; conditions: after 48 h
Protocol: Rhipicephalus sanguineus—In Vitro Contact Tests with Adult Brown Dog Ticks
as §1
After the solvent has evaporated off, the tubes are populated with 5-10 adult dog ticks (Rhipicephalus sanguineus), sealed with a perforated plastic lid and incubated in a horizontal position in the dark at room temperature and ambient humidity. After 48 h, efficacy is determined. To this end, the ticks are knocked to the floor of the tube and incubated on a hotplate at 45-50° C. for not more than 5 min. Ticks which remain motionless on the floor or move in such an uncoordinated manner that they are unable to deliberately avoid the heat by climbing upwards are considered to be dead or moribund.
An efficacy of 100% means that all the ticks were dead or moribund. 0% efficacy means that none of the ticks had been harmed.

Amblyomma hebraeum = Amblyomma hebraeum test (tick nymphs, immersion); type: in vivo; conditions: application rate 100 ppm, after 42 days
Source text: Amblyomma hebaraeum Test • Solvent: dimethyl sulphoxide […] Tick nymphs (Amblyomma hebraeum) are placed into perforated plastic beakers and immersed in the desired concentration for one minute. The ticks are transferred on filter paper into a Petri dish and stored in a climate-controlled cabinet.

[3] = test system: Boophilus microplus Parkhurst strain, SP-resistant; experiment: Boophilus microplus dip test; type: in vivo; conditions: application rate 100 ppm, assessed after 7 days
Protocol: Boophilus microplus—Dip Test
• Test animals: cattle ticks (Boophilus microplus) Parkhurst strain, SP-resistant • Solvent: dimethyl sulphoxide
10 mg of active compound are dissolved in 0.5 ml of dimethyl sulphoxide. To produce a suitable formulation, the active compound solution is diluted with water to the concentration desired in each case.
This active compound preparation is pipetted into tubes. 8-10 engorged adult female cattle ticks (Boophilus microplus) are transferred into a further tube with holes. The tube is immersed into the active compound preparation, and all the ticks are completely wetted. After the liquid has run out, the ticks are transferred on filter discs into plastic dishes and stored in a climate-controlled room.
Efficacy is assessed after 7 days by laying of fertile eggs. Eggs which are not visibly fertile are stored in a climate-controlled cabinet until the larvae hatch after about 42 days. An efficacy of 100% means that none of the ticks has laid any fertile eggs; 0% means that all the eggs are fertile.

Boophilus microplus = Boophilus microplus injection test; type: in vivo; conditions: application rate 20 μg/animal, assessed after 7 days
Protocol: Boophilus microplus—Injection Test • Solvent: dimethyl sulphoxide […] The animals are transferred into dishes and kept in a climate-controlled room. Efficacy is assessed after 7 days by laying of fertile eggs. Eggs which are not visibly fertile are stored in a climate-controlled cabinet until the larvae hatch after about 42 days.

Ctenocephalides felis [4] = experiment: Ctenocephalides felis oral test; type: in vivo; conditions: application rate 100 ppm in citrated cattle blood, after 2 days
Source text: Ctenocephalides felis—Oral Test • Solvent: dimethyl sulphoxide […] Dilution with citrated cattle blood gives the desired concentration. About 20 unfed adult cat fleas (Ctenocephalides felis) are placed into a chamber which is closed at the top and bottom with gauze. A metal cylinder whose bottom end is closed with parafilm is placed onto the chamber. The cylinder contains the blood/active compound preparation, which can be imbibed by the fleas through the parafilm membrane.

Lucilia cuprina = Lucilia cuprina test; type: in vivo; conditions: application rate 100 ppm, L1 larvae, after 2 days
Protocol: (§2) • Solvent: dimethyl sulphoxide
(§3) To produce a suitable preparation of active compound, 10 mg of active compound are mixed with 0.5 ml of dimethyl sulphoxide, and the concentrate is diluted with water to the desired concentration.
About 20 L1 larvae of the Australian sheep blowfly (Lucilia cuprina) are transferred into a test vessel containing minced horsemeat and the active compound preparation of the desired concentration.
After 2 days, the kill in % is determined. 100% means that all the larvae have been killed; 0% means that no larvae have been killed.

Musca domestica = Musca domestica test; type: in vivo; conditions: application rate 100 ppm, adult houseflies, after 2 days
Protocol: as §2, §3
Vessels containing a sponge treated with sugar solution and the active compound preparation of the desired concentration are populated with 10 adult houseflies (Musca domestica).
After 2 days, the kill in % is determined. 100% means that all of the flies have been killed; 0% means that none of the flies have been killed.

Myzus persicae = Myzus persicae spray test; type: in vivo; conditions: application rate 100 g/ha, after 6 days
Protocol: Myzus Persicae—Spray Test […] To produce further test concentrations, the preparation is diluted with emulsifier-containing water. Discs of Chinese cabbage leaves (Brassica pekinensis) infested by all stages of the green peach aphid (Myzus persicae) are sprayed with an active compound preparation of the desired concentration.

Phaedon cochleariae = Phaedon cochleariae spray test; type: in vivo; conditions: application rate 100 g/ha, after 7 days
Protocol: Phaedon Cochleariae—Spray Test
(§4) • Solvent: 78.0 parts by weight of acetone • 1.5 parts by weight of dimethylformamide • Emulsifier: alkylaryl polyglycol ether
(§5) To produce a suitable preparation of active compound, 1 part by weight of active compound is dissolved using the stated parts by weight of solvent and made up with water containing an emulsifier concentration of 1000 ppm until the desired concentration is attained. To produce further test concentrations, the preparation is diluted with emulsifier-containing water.
After 7 days, the efficacy in % is determined. 100% means that all the beetle larvae have been killed; 0% means that no beetle larvae have been killed.

Spodoptera frugiperda = Spodoptera frugiperda spray test; type: in vivo; conditions: application rate 100 g/ha, after 7 days
Protocol: Spodoptera Frugiperda—Spray Test
as §4, §5
Leaf discs of maize (Zea mays) are sprayed with an active compound preparation of the desired concentration and, after drying, populated with caterpillars of the armyworm (Spodopterafrugiperda).
After 7 days, the efficacy in % is determined. 100% means that all the caterpillars have been killed; 0% means that no caterpillars have been killed.

Tetranychus urticae = Tetranychus urticae spray test, OP-resistant; type: in vivo; conditions: after 6 days
Protocol: Tetranychus Urticae—Spray Test, OP-Resistant
as §4
To produce further test concentrations, the preparation is diluted with emulsifier-containing water.
After 6 days, the efficacy in % is determined. 100% means that all the spider mites have been killed; 0% means that none of the spider mites have been killed.

[5] = application rate 500 g/ha (5 μg/cm^2)
[6] = HPLC, C18, acetonitrile (0.1% formic acid)/water (0.09% formic acid) gradient

Row | chromatographic logP ([1]; reversed-phase C18 HPLC column, HPLC, C18, acetonitrile (0.1% formic acid)/water (0.09% formic acid) gradient, read-out: logP) | chromatographic logP ([1]; reversed-phase C18 HPLC column, HPLC-MS method a), read-out: log P (HPLC-MS)) | Compound | efficacy (fleas dead or moribund) (Ctenocephalides felis [2]) [%] | efficacy (ticks dead or moribund) (Rhipicephalus sanguineus; [5]) [%] | efficacy (kill in %) (Amblyomma hebraeum) [%] | efficacy (laying of fertile eggs) [3] [%] | efficacy (laying of fertile eggs) (Boophilus microplus) [%] | efficacy (kill in %) (Ctenocephalides felis [4]) [%] | efficacy (kill in %) (Lucilia cuprina) [%] | efficacy (kill in %) (Musca domestica) [%] | efficacy in % (Myzus persicae) [%] | efficacy in % (Phaedon cochleariae) [%] | efficacy in % (Spodoptera frugiperda) [%] | efficacy in % (Tetranychus urticae; application rate 100 g/ha) [%] | logP [1, 6] | efficacy in % (Tetranychus urticae; application rate 20 g/ha) [%] | efficacy (ticks dead or moribund) (Rhipicephalus sanguineus; application rate 20 g/ha (0.2 μg/cm^2)) [%]
1 | 3.3 | 3.33 | Cc1cc(C(F)(C(F)(F)F)C(F)(F)F)cc(C)c1-n1cc(-c2cnc(C)c(C(=O)NC3CC3)c2)nn1 [Example 1, N-cyclopropyl-5-[1-[2,6-dimethyl-4-[1,2,2,2-tetrafluoro-1-(trifluoromethyl)ethyl]phenyl]triazol-4-yl]-2-methylpyridine-3-carboxamide] | 100 | 100 | 80 | 100 | 100 | 100 | 100 | 100 | 90 | 100 | 100 | 100 |  |  | 
2 |  |  | Cc1cc(C(F)(C(F)(F)F)C(F)(F)F)cc(C)c1-n1cc(-c2cnc(Cl)c(C(=O)NC3CC3)c2)nn1 [Example 2] | 100 | 100 | 100 | 100 | 100 | 100 | 100 | 100 | 90 | 100 | 100 | 90 | 3.8 |  | 
3 |  |  | O=C(NC1CC1)c1cc(-c2cn(-c3c(Cl)cc(C(F)(C(F)(F)F)C(F)(F)F)cc3Cl)nn2)cnc1Cl [Example 3] |  | 100 | 100 | 100 | 100 | 100 | 100 | 100 |  | 100 | 100 |  | 3.9 | 90 | 
4 |  |  | Cc1ncc(-c2cn(-c3c(Cl)cc(C(F)(C(F)(F)F)C(F)(F)F)cc3Cl)nn2)cc1C(=O)NC1CC1 [Example 5] | 100 | 100 | 100 | 100 | 100 | 100 | 100 | 100 |  | 100 | 100 | 100 | 3.4 |  | 
5 |  |  | Cc1cc(C(F)(C(F)(F)F)C(F)(F)F)cc(C)c1-n1cc(-c2cnc(Cl)c(C(=O)NC3(C#N)CC3)c2)nn1 [Example 8] | 100 | 100 | 100 | 100 | 100 | 100 | 90 | 95 |  | 100 |  | 100 | 3.8 |  | 
6 |  |  | N#CC1(NC(=O)c2cc(-c3cn(-c4c(Cl)cc(C(F)(C(F)(F)F)C(F)(F)F)cc4Cl)nn3)cnc2Cl)CC1 [Example 9] | 100 |  | 100 | 100 | 100 | 100 | 100 | 100 |  | 100 |  | 100 | 3.8 |  | 100
7 |  |  | Cc1cc(C(F)(C(F)(F)F)C(F)(F)F)cc(C)c1-n1cc(-c2cnc(C)c(C(=O)NC3(C#N)CC3)c2)nn1 [Example 12] | 100 | 80 |  | 80 | 100 | 100 | 100 | 100 | 90 | 100 | 100 | 100 | 3.4 |  | 
8 |  |  | Cc1cc(C(F)(C(F)(F)F)C(F)(F)F)cc(C(F)(F)F)c1-n1cc(-c2cnc(Cl)c(C(=O)NC3CC3)c2)nn1 [Example 13] | 100 | 100 |  | 100 | 100 | 100 | 100 | 100 | 90 | 100 | 100 | 100 | 3.9 |  | 
9 |  |  | Cc1cc(C(F)(C(F)(F)F)C(F)(F)F)cc(C(F)(F)F)c1-n1cc(-c2cnc(Cl)c(C(=O)N(C)C3CC3)c2)nn1 [Example 15] | 100 |  |  | 100 | 100 | 100 | 100 | 100 | 90 | 100 | 100 | 100 | 4.3 |  | 
